Earlier results, collected in US20160271257A1, “Low Molecular Weight Immune-Modulators As Adjuvants for Specific Immunotherapy” (PLS-DESIGN GMBH, priority 2013, published 2016).
In brackets after ≈: the same amount, converted by molar mass. Entries after “also recorded” stand apart in the source; their conditions may differ. Where two headings read alike, the source gives them in different places. Ends that are not written are not given here.

Tests used:
[1] = test system: NF-kappa B translocation; settings: read-out: concentration for 50% inhibition of NF-kappa B translocation
[2] = test system: C3 proteins from lower mammalian species, C4 and C5
[3] = test system: C3; settings: 10 mg/kg i.v. bolus then 60 μg/kg/min infusion
[4] = test system: C3; settings: sera from cynomolgus monkeys; read-out: IC50 of haemolytic activity
[5] = test system: TNFR1-mediated activation of NF-kappa B
[6] = target: T1, CD3 (Homo sapiens, UniProt P07766); settings: in vivo
T1 construct: endogenous in cells; host or cells: T cells of type 1 diabetes patients (clinical studies reported in the literature)
T1 sequence (P07766 23-207): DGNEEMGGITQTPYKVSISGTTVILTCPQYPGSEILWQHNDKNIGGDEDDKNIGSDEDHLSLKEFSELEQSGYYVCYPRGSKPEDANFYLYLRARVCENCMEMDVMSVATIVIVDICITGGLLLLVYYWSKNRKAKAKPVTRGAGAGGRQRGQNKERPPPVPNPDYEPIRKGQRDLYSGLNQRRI
T1 sequence (P04234 22-171 partner): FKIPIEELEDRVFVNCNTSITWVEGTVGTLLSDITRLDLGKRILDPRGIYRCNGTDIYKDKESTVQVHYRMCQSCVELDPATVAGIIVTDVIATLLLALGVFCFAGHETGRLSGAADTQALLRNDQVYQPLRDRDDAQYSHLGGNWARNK
T1 sequence (P09693 23-182 partner): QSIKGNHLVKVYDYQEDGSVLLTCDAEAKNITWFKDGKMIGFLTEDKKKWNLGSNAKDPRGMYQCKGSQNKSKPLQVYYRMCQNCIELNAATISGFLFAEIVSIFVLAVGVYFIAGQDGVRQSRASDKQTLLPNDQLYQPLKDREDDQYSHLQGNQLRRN
T1 sequence (P20963 22-164 partner): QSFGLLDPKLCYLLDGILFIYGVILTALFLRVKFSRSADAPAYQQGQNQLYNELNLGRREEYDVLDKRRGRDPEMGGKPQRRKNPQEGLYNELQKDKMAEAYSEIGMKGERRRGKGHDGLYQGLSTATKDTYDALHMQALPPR

[7] = test system: isolated rat cardiomyocytes; settings: for glutathione repletion and unmasking of TNFR2-mediated effects (reproducing in vivo NAC treatment): incubation 2-3 hours, 50 μmol/L GSM, 50 μmol/L NAC or 10 mmol/L GSH; for protection against the deleterious effects of TNF-alpha on contraction: preincubation 2-3 hours, exogenously added, 50 μM GSM
[8] = test system: IL-4 and IL-13
[9] = not given; remark: listed apart in the source
[10] = in vivo
[11] = i.p. 5 μg/kg every 2 days
[12] = 10 ng with 100 μg OVA
[13] = individuals not adhering to dietary calcium restriction
[14] = mouse, in vivo
[15] = not given; remark: listed apart in the source
[16] = six months, budesonide 800 μg/d and cholecalciferol 500 IU
[17] = target: T2, C3aR (Homo sapiens, UniProt Q16581); settings: human neutrophils; read-out: IC50 of inhibition of C3a-induced calcium mobilization
T2 sequence (Q16581 1-482): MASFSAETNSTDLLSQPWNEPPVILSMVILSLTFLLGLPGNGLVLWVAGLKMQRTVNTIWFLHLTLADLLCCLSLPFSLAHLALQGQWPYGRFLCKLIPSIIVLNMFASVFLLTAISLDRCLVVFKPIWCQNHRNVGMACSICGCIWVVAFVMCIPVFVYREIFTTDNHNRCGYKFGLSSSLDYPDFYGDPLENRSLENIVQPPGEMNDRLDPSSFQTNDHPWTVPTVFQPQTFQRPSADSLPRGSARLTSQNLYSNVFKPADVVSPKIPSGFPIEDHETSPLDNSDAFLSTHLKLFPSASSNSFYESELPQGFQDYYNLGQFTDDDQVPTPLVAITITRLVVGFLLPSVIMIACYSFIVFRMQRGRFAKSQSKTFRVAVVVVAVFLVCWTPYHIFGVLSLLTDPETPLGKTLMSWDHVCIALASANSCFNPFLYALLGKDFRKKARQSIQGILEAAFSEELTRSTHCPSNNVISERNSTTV

[18] = not given; remark: listed apart in the source
[19] = not given; remark: listed apart in the source
[20] = test system: calcium metabolism
[21] = for time detectable in serum by HPLC: rats
[22] = topical, used clinically for years
[23] = topical pretreatment
[24] = 600 mg to 1000 mg three times daily, 4 weeks
[25] = oral 1800 mg/day added to standard therapy
[26] = 8 days
[27] = 3-day NAC 120 mg/kg/day, 2-month post-myocardial infarction rats
[28] = test system: peripheral blood T cells
[29] = in most of the subjects
[30] = in vivo; remark: listed apart in the source
[31] = 2 μg/day, 3 months
[32] = not given; remark: listed apart in the source
[33] = not given; remark: listed apart in the source
[34] = oral 4,000-40,000 IU/day, 28 weeks

CC(=O)Oc1ccccc1C(=O)O [ASA, acetylsalicylic acid]
IC50 [1]: ~3000 µM

TFGLQLELT [nonapeptide 180-188]
rats showing clinical symptoms of adjuvant arthritis during pretreatment period (i.p. 100 μg in FIA): none of the rats
rats completely protected against subsequently induced adjuvant arthritis (three times 100 μg in FIA): 11 out of 16

CC[C@H](C)[C@H](N)C(=O)N[C@H]1CSSC[C@@H](C(=O)N[C@H](C(N)=O)[C@@H](C)O)NC(=O)[C@H](CCCN=C(N)N)NC(=O)[C@H](Cc2cnc[nH]2)NC(=O)[C@H](Cc2cnc[nH]2)NC(=O)CNC(=O)[C@H](Cc2c[nH]c3ccccc23)NC(=O)[C@H](CC(=O)O)NC(=O)[C@H](CCC(N)=O)NC(=O)[C@H](C(C)C)NC(=O)[C@H](C(C)C)NC1=O [compstatin]
binding to C3 from lower mammalian species or to C4 and C5 [2]: does not bind
effect in sepsis model [3]: decrease the procoagulant response and to confer organ protection

O=C([O-])c1ccccc1O.[Na+] [sodium salicylate]
dose required for inhibition of TNFR1-mediated activation of NF-kappa B [5]: 10 to 20 mM

Teplizumab: humanized anti CD3 mAb mutated to prevent binding to Fc receptors
clinical efficacy in phase III studies [6]: failed to show clinical efficacy

N[C@@H](CCC(=O)N[C@@H](CS)C(=O)NCC(=O)O)C(=O)O [GSH, glutathione]
glutathione repletion and unmasking of TNFR2-mediated effects (reproducing in vivo NAC treatment) [7]: could not reproduce

R121D/Y124D: human IL-4 double mutant antagonizing IL-4 and IL-13
cutaneous wheal response and circulating allergen-specific IgE ([8]; subcutaneous, 6 weeks or more): reduced
allergen-induced airways hyper-responsiveness ([8]; subcutaneously or via nebulisation): protect

CSC[C@H](NC(=O)CC[C@H](N)C(=O)O)C(=O)NCC(=O)O [GSM, S-methylglutathione]
solubility in water [9]: 8.1 mM (≈ 2600 µg/mL)
glutathione repletion and unmasking of TNFR2-mediated effects (reproducing in vivo NAC treatment) [7]: achieved
protection against the deleterious effects of TNF-alpha on contraction [7]: protected

Ac-Phe-[Orn-Pro-DCha-Trp-Arg] [PMX53]
half-life [10]: 1.17 h

C=C1/C(=C\C=C2/CCC[C@]3(C)[C@@H]([C@H](C)CCCC(C)(C)O)CC[C@@H]23)C[C@@H](O)C[C@@H]1O [1,25-(OH)2D3, 1α,25-dihydroxyvitamin D3]
treated mice in which appearance of paralysis was prevented [11]: 70%
airway hyper-responsiveness [12]: significantly inhibited
serum OVA-specific IgE levels [12]: potentiated the reduction; also recorded: significant reduction
adverse effect reported [13]: hypercalcaemia; also recorded: hypercalcemia
development / onset of diabetes [14]: prevented
progression of arthritis and hypercalcemia ([15]; diet, 20 ng/mouse/day): effective in inhibiting the progression of arthritis without producing hypercalcemia
symptoms of Lyme arthritis (B. burgdorferi infection) ([15]; dietary supplementation): minimized or prevented
symptoms of collagen-induced arthritis ([15]; dietary supplementation): prevented

C=C1CC[C@H](O)C/C1=C/C=C1\CCC[C@]2(C)[C@@H]([C@H](C)CCCC(C)C)CC[C@@H]12 [cholecalciferol]
children who experienced asthma exacerbation [16]: 17%

N=C(N)NCCCC(NC(=O)COCC(c1ccccc1)c1ccccc1)C(=O)O [SB290157, N^2-[(2,2-dipheneylethoxy)acetyl]-L-arginine]
solubility in DMSO [9]: 5000 µg/mL (≈ 12.1 mM)
solubility in saline solution containing 5% ethanol and 10% Cremaphor-EL [9]: at least 10 mg/ml
IC50 [17]: 0.028 µM
in vivo half-life [18]: short

vitamin D
relative risk of type 1 diabetes over the subsequent 30 years ([19]; doses of exactly 50 μg/day): 0.22
relative risk of type 1 diabetes over the subsequent 30 years ([19]; regular, doses of over 50 μg/day (2000 IU/d)): 0.14
relative risk of developing type 1 diabetes ([19]; supplements given irregularly): 0.16
relative risk of developing type 1 diabetes ([19]; supplements given regularly): 0.12

Otelixizumab: Fc-mutated anti CD3 mAb
clinical efficacy in phase III studies [6]: failed to show clinical efficacy

C=C1/C(=C\C=C2/CCC[C@]3(C)[C@@H]([C@H](C)/C=C/[C@@H](O)C4CC4)CC[C@@H]23)C[C@@H](O)C[C@@H]1O [calcipotriol]
times less effect on calcium metabolism compared to 1,25-(OH)2D3 ([20]; activation of calcium absorption and bone calcium mobilization): 100-200 times
effects of the metabolites, times weaker than those of the parent compound ([20]; in vivo): 100 times
solubility in ethanol [9]: approx. 50 mg/ml
solubility in a 1:5 solution of ethanol:PBS, pH 7.2 ([9]; pH 7.2): approx. 0.15 mg/ml
time detectable in serum by HPLC ([21]; i.v. 10 μg/kg): up to 5 min
time detectable in serum by HPLC ([21]; i.v. 50 μg/kg): up to 10 min
half-life in circulation ([21]; rat, in vivo): short; also recorded: very short
rate of clearance, times higher than for 1,25-(OH)2D3 ([21]; rat, in vivo): approximately 140 times
systemic toxicity [22]: without systemic toxicity
CD4+CD25+ Tregs [23]: induced
antigen-specific CD8+ T cell priming [23]: abolished

CC(=O)N[C@@H](CS)C(=O)O [NAC, N-acetyl-L-cysteine]
safety and effect on blood neutrophil GSH, airway neutrophil count and elastase activity [24]: safe and effective
primary end points including vital capacity [25]: better
decrease of ovalbumin-specific IgE and IgG1 ([26]; 0.5 g/liter in drinking water): ~30%
decrease of ovalbumin-specific IgE and IgG1 responses ([26]; 1.0 g/liter in drinking water): more than 70%
GSH content of the left ventricle, % of control level in sham rats [27]: 75%
cytotoxicity to resting T cells ([28]; 1 mM to 20 mM, 3 days, seven donors): nontoxic
effect on T cell function and growth ([28]; 10 mM): effective enhancer of T cell function and enhancer of growth
glutathione repletion and unmasking of TNFR2-mediated effects (reproducing in vivo NAC treatment) [7]: could not reproduce
protection against the deleterious effects of TNF-alpha on contraction [7]: not protected
highest non-toxic dose [29]: 800 mg/m^2/day

O=C(O)c1ccccc1O [salicylic acid]
solubility in ethanol/water (10:90 vol) [9]: 21 mM (≈ 2900 µg/mL)
solubility in ethanol/water (20:80 vol) [9]: 35 mM (≈ 4830 µg/mL)
solubility in ethanol/water (30:70 vol) [9]: 81 mM (≈ 11200 µg/mL)
solubility in ethanol/water (40:60 vol) [9]: 277 mM (≈ 38300 µg/mL)
solubility in ethanol/water (50:50 vol) [9]: 526 mM (≈ 72700 µg/mL)
solubility in water ([9]; salicylic acid): 14 mM (≈ 1930 µg/mL)

O=C(O)c1ccccc1O [salicylate]
levels at which tinnitus may occasionally occur [30]: ≥ 95000 ng/mL

C=C1/C(=C\C=C2/CCC[C@]3(C)[C@@H]([C@H](C)CCCC(C)C)CC[C@@H]23)C[C@@H](O)C[C@@H]1O [alfacalcidiol]
patients going into remission [31]: 45%
patients with improvement of disease activity [31]: 89%

C=C1CC[C@H](O)C/C1=C/C=C1\CCC[C@]2(C)[C@@H]([C@H](C)CCCC(C)(C)O)CC[C@@H]12 [25-OH-D3, 25-hydroxyvitamin D3]
adverse effects ([32]; 1,000 to 40,000 IU/day): no adverse effects
disease progression and relapse activity [32, 34]: not affected
number of new lesions assessed by MRI [32, 34]: significant decrease
serum levels of 25-OH-D3 to be kept below to avoid toxicity ([33]; based on experiments in the rat): below 250 ng/ml
serum levels of 25-OH-D3 at which toxicity occurs ([33]; rat, in vivo): ≥ 500 ng/mL
